Measured values reported in the supplement of paper PMC11061612.

Columns and labels:
Test in all cases: combination Emax (second highest fraction inhibited in the dose matrix, 72 h); higher = more inhibition; extreme values may be limits of the assay
[1] = tested on: SNU-398 (Hepatocellular Carcinoma)
How it was run: (§1)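 Cell lines grown in DMEM/F12 or RPMI with 10% FBS were plated in 1536-well plates and held 24 hours at 37°C, 5% CO2 before 72 hours of exposure to two-drug dose matrices, with DMSO typically at 0.2%. CellTiter-Glo 2.0 luminescence gave viability, which was converted to inhibition. Vehicle wells were set to 0 and blank wells to 1. Combination Emax is the second-highest inhibition in the matrix, and Bliss excess is the observed combination effect minus the expected EA + EB − EA·EB, where EA and EB are the single-agent effects.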

[2] = tested on: COR-L279 (Small Cell Lung Carcinoma)
How it was run: as §1

[3] = tested on: KY821 (Acute Myeloid Leukemia)
How it was run: as §1

[4] = tested on: VMRC-RCZ (Kidney Carcinoma)
How it was run: as §1

[5] = tested on: ESO51 (Esophageal Adenocarcinoma)
How it was run: as §1

[6] = tested on: DAN-G (Pancreatic Carcinoma)
How it was run: as §1

[7] = tested on: NCI-H526 (Small Cell Lung Carcinoma)
How it was run: as §1

[8] = tested on: NCI-H661 (Non-Small Cell Lung Carcinoma)
How it was run: as §1

[9] = tested on: MOLM-13 (Acute Myeloid Leukemia)
How it was run: as §1

[10] = tested on: RPMI-8226 (Plasma Cell Myeloma)
How it was run: as §1

[11] = tested on: KP-3 (Pancreatic Carcinoma)
How it was run: as §1

[12] = tested on: MN-60 (B-Lymphoblastic Leukemia)
How it was run: as §1

[13] = tested on: SK-GT-2 (Gastric Carcinoma)
How it was run: as §1

NCI-H2731 (Mesothelioma) = tested on: NCI-H2731 (Mesothelioma)
How it was run: as §1

[14] = tested on: HCC1187 (Breast Carcinoma)
How it was run: as §1

[15] = tested on: DMS-114 (Small Cell Lung Carcinoma)
How it was run: as §1

[16] = tested on: SUP-B15 (B-Lymphoblastic Leukemia)
How it was run: as §1

[17] = tested on: IM-95 (Gastric Carcinoma)
How it was run: as §1

[18] = tested on: PC-3 (Prostate Carcinoma)
How it was run: as §1

[19] = tested on: H9 (T-Cell Non-Hodgkin's Lymphoma)
How it was run: as §1

Row | Compound | combination Emax [1] | combination Emax [2] | combination Emax [3] | combination Emax [4] | combination Emax [5] | combination Emax [6] | combination Emax [7] | combination Emax [8] | combination Emax [9] | combination Emax [10] | combination Emax [11] | combination Emax [12] | combination Emax [13] | combination Emax (NCI-H2731 (Mesothelioma)) | combination Emax [14] | combination Emax [15] | combination Emax [16] | combination Emax [17] | combination Emax [18] | combination Emax [19]
1 | CC1(C)CCC(CN2CCN(c3ccc(C(=O)NS(=O)(=O)c4ccc(NCC5CCOCC5)c([N+](=O)[O-])c4)c(Oc4cnc5[nH]ccc5c4)c3)CC2)=C(c2ccc(Cl)cc2)C1 [Venetoclax] + C[C@@H]1COCCN1C2=NC(=NC(=C2)C3(CC3)[S@](=N)(=O)C)C4=C5C=CNC5=NC=C4 [AZD6738] (first compound max 1 µM, 7x7, partner max 10 µM) | 0.673 | 0.833 | 1 | 0.434 | 0.82 | 0.719 | 0.889 | 0.654 | 1 | 0.962 | 0.323 | 0.456 | 0.331 | 0.307 | 0.501 | 0.564 | 1 | 0.169 | 0.517 | 1
2 | CC1(C)CCC(CN2CCN(c3ccc(C(=O)NS(=O)(=O)c4ccc(NCC5CCOCC5)c([N+](=O)[O-])c4)c(Oc4cnc5[nH]ccc5c4)c3)CC2)=C(c2ccc(Cl)cc2)C1 [Venetoclax] + C[C@@H](Nc1cc(F)cc(F)c1)c1cc(C(=O)N(C)C)cc2c(=O)cc(N3CCOCC3)oc12 [AZD8186] (first compound max 1 µM, 7x7, partner max 3 µM) | 0.166 | 0.394 | 1 | 0.201 | 0.334 | 0.0841 | 0.799 | 0.164 | 1 | 0.194 | 0.0603 | 0.418 | 0.0218 | 0.107 | 0.138 | 0.113 | 1 | 0.208 | 0.312 | 0.299
3 | CC1(C)CCC(CN2CCN(c3ccc(C(=O)NS(=O)(=O)c4ccc(NCC5CCOCC5)c([N+](=O)[O-])c4)c(Oc4cnc5[nH]ccc5c4)c3)CC2)=C(c2ccc(Cl)cc2)C1 [Venetoclax] + Cc1cc2ncnn2cc1Nc1ncc2c(n1)n(C1CCOCC1)c(=O)n2C [AZD7648] (first compound max 1 µM, 7x7, partner max 10 µM) | 0.29 | 0.372 | 0.956 | 0.112 | 0.131 | 0.363 | 0.657 | 0.16 | 0.956 | 0.438 | 0.13 | 0.299 | 0.155 | 0.157 | 0.142 | 0.315 | 1 | 0.155 | 0.263 | 0.396
4 | CC1(C)CCC(CN2CCN(c3ccc(C(=O)NS(=O)(=O)c4ccc(NCC5CCOCC5)c([N+](=O)[O-])c4)c(Oc4cnc5[nH]ccc5c4)c3)CC2)=C(c2ccc(Cl)cc2)C1 [Venetoclax] + Cn1cnc2c(F)c(Nc3ccc(Br)cc3Cl)c(C(=O)NOCCO)cc21 [Selumetinib] (first compound max 1 µM, 7x7, partner max 3 µM) | 0.352 | 0.213 | 1 | 0.122 | 0.384 | 0.233 | 0.625 | 0.0912 | 1 | 0.325 | 0.135 | 0.347 | 0.0541 | 0.0907 | 0.129 | 0.0989 | 1 | 0.179 | 0.152 | 0.931
